# Measurements reported in PubChem BioAssay (NCI).
#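 In this assay, cells in 96-well plates receive the compound at five concentrations for 48 hours. Endpoints are linearly interpolated between the surrounding concentrations. At the GI50, growth is halved. TGI: total growth inhibition.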
# What was measured:
# Experiment in all cases: NCI anticancer screen, dose series, 48 h
# UACC-62 melanoma = system: UACC-62 melanoma
# SNB-19 CNS = system: SNB-19 CNS
# HT29 colon = system: HT29 colon
# SF-268 CNS = system: SF-268 CNS
# RXF 393 renal = system: RXF 393 renal
# BT-549 breast = system: BT-549 breast
# SN12C renal = system: SN12C renal
# ACHN renal = system: ACHN renal
# HCC-2998 colon = system: HCC-2998 colon
# KM12 colon = system: KM12 colon
# NCI/ADR-RES ovarian = system: NCI/ADR-RES ovarian
# CAKI-1 renal = system: CAKI-1 renal
# OVCAR-8 ovarian = system: OVCAR-8 ovarian
# COLO 205 colon = system: COLO 205 colon
# U251 CNS = system: U251 CNS
# MDA-MB-435 = system: MDA-MB-435
# A549 NSCLC = system: A549 NSCLC
# CCRF-CEM leukemia = system: CCRF-CEM leukemia
# TK-10 renal = system: TK-10 renal
# HOP-62 NSCLC = system: HOP-62 NSCLC
# DU-145 prostate = system: DU-145 prostate
# MALME-3M melanoma = system: MALME-3M melanoma
# T-47D breast = system: T-47D breast
# SK-MEL-5 melanoma = system: SK-MEL-5 melanoma
# SW-620 colon = system: SW-620 colon
# OVCAR-5 ovarian = system: OVCAR-5 ovarian
# MOLT-4 leukemia = system: MOLT-4 leukemia
# UACC-257 melanoma = system: UACC-257 melanoma
# SF-539 CNS = system: SF-539 CNS
# SR leukemia = system: SR leukemia
# NCI-H522 lung = system: NCI-H522 lung
# HOP-92 NSCLC = system: HOP-92 NSCLC
# HCT-15 colon = system: HCT-15 colon
# SK-MEL-2 melanoma = system: SK-MEL-2 melanoma
# RPMI-8226 leukemia = system: RPMI-8226 leukemia
# EKVX NSCLC = system: EKVX NSCLC
# K-562 leukemia = system: K-562 leukemia
# MDA-MB-231 breast = system: MDA-MB-231 breast
# SK-MEL-28 melanoma = system: SK-MEL-28 melanoma
# A498 renal = system: A498 renal
# HS 578T breast = system: HS 578T breast
# NCI-H460 lung = system: NCI-H460 lung
# MCF7 breast = system: MCF7 breast
# PC-3 prostate = system: PC-3 prostate
# LOX IMVI melanoma = system: LOX IMVI melanoma
# OVCAR-3 ovarian = system: OVCAR-3 ovarian
# SNB-75 CNS = system: SNB-75 CNS
# OVCAR-4 ovarian = system: OVCAR-4 ovarian
# M14 melanoma = system: M14 melanoma
# SF-295 CNS = system: SF-295 CNS
# IGROV1 ovarian = system: IGROV1 ovarian
# 786-0 renal = system: 786-0 renal
# UO-31 renal = system: UO-31 renal
# NCI-H226 lung = system: NCI-H226 lung
# SK-OV-3 ovarian = system: SK-OV-3 ovarian
# HCT-116 colon = system: HCT-116 colon
# NCI-H23 lung = system: NCI-H23 lung
structure (smiles),measurement,setting,value
CC[C@H](Nc1nc(N)nc(N)c1Cl)c1nc2cccc(NCc3ccc(C(=O)NO)cc3)c2c(=O)n1-c1ccccc1,GI50,UACC-62 melanoma,1.41 µM
same,TGI,UACC-62 melanoma,2.81 µM
same,GI50,SNB-19 CNS,1.7 µM
same,TGI,SNB-19 CNS,4.18 µM
same,GI50,HT29 colon,2.01 µM
same,TGI,HT29 colon,5.27 µM
same,GI50,SF-268 CNS,1.66 µM
same,TGI,SF-268 CNS,3.69 µM
same,GI50,RXF 393 renal,0.403 µM
same,TGI,RXF 393 renal,1.75 µM
same,GI50,BT-549 breast,2.13 µM
same,TGI,BT-549 breast,5.69 µM
same,GI50,SN12C renal,1.78 µM
same,TGI,SN12C renal,4.78 µM
same,GI50,ACHN renal,1.98 µM
same,TGI,ACHN renal,4.2 µM
same,GI50,HCC-2998 colon,1.62 µM
same,TGI,HCC-2998 colon,3.22 µM
same,GI50,KM12 colon,2.08 µM
same,TGI,KM12 colon,4.62 µM
same,GI50,NCI/ADR-RES ovarian,12.4 µM
same,TGI,NCI/ADR-RES ovarian,> 100 µM
same,GI50,CAKI-1 renal,2 µM
same,TGI,CAKI-1 renal,5 µM
same,GI50,OVCAR-8 ovarian,1.69 µM
same,TGI,OVCAR-8 ovarian,5.05 µM
same,GI50,COLO 205 colon,2.24 µM
same,TGI,COLO 205 colon,5.73 µM
same,GI50,U251 CNS,1.51 µM
same,TGI,U251 CNS,3.08 µM
same,GI50,MDA-MB-435,1.7 µM
same,TGI,MDA-MB-435,3.4 µM
same,GI50,A549 NSCLC,2.33 µM
same,TGI,A549 NSCLC,5.73 µM
same,GI50,CCRF-CEM leukemia,1.35 µM
same,TGI,CCRF-CEM leukemia,> 100 µM
same,GI50,TK-10 renal,2.02 µM
same,TGI,TK-10 renal,6.63 µM
same,GI50,HOP-62 NSCLC,1.67 µM
same,TGI,HOP-62 NSCLC,4.04 µM
same,GI50,DU-145 prostate,2.91 µM
same,TGI,DU-145 prostate,10.5 µM
same,GI50,MALME-3M melanoma,1.36 µM
same,TGI,MALME-3M melanoma,4.4 µM
same,GI50,T-47D breast,2.15 µM
same,TGI,T-47D breast,10.7 µM
same,GI50,SK-MEL-5 melanoma,1.75 µM
same,TGI,SK-MEL-5 melanoma,3.22 µM
same,GI50,SW-620 colon,1.63 µM
same,TGI,SW-620 colon,4.71 µM
same,GI50,OVCAR-5 ovarian,1.61 µM
same,TGI,OVCAR-5 ovarian,3.36 µM
same,GI50,MOLT-4 leukemia,1.47 µM
same,TGI,MOLT-4 leukemia,16.6 µM
same,GI50,UACC-257 melanoma,1.94 µM
same,TGI,UACC-257 melanoma,4.92 µM
same,GI50,SF-539 CNS,1.64 µM
same,TGI,SF-539 CNS,3.06 µM
same,GI50,SR leukemia,0.579 µM
same,TGI,SR leukemia,> 100 µM
same,GI50,NCI-H522 lung,1.29 µM
same,TGI,NCI-H522 lung,3.6 µM
same,GI50,HOP-92 NSCLC,1.26 µM
same,TGI,HOP-92 NSCLC,2.81 µM
same,GI50,HCT-15 colon,2.02 µM
same,TGI,HCT-15 colon,4.75 µM
same,GI50,SK-MEL-2 melanoma,2.02 µM
same,TGI,SK-MEL-2 melanoma,5.27 µM
same,GI50,RPMI-8226 leukemia,2.15 µM
same,TGI,RPMI-8226 leukemia,5.92 µM
same,GI50,EKVX NSCLC,1.75 µM
same,TGI,EKVX NSCLC,3.78 µM
same,GI50,K-562 leukemia,1.78 µM
same,TGI,K-562 leukemia,> 100 µM
same,GI50,MDA-MB-231 breast,1.55 µM
same,TGI,MDA-MB-231 breast,3.65 µM
same,GI50,SK-MEL-28 melanoma,1.55 µM
same,TGI,SK-MEL-28 melanoma,3.21 µM
same,GI50,A498 renal,1.34 µM
same,TGI,A498 renal,2.71 µM
same,GI50,HS 578T breast,2.62 µM
same,TGI,HS 578T breast,10.9 µM
same,GI50,NCI-H460 lung,1.94 µM
same,TGI,NCI-H460 lung,4.43 µM
same,GI50,MCF7 breast,2.25 µM
same,TGI,MCF7 breast,7.2 µM
same,GI50,PC-3 prostate,1.53 µM
same,TGI,PC-3 prostate,3.7 µM
same,GI50,LOX IMVI melanoma,1.73 µM
same,TGI,LOX IMVI melanoma,3.17 µM
O=C1C(Cl)=C(Nc2cccc(C(F)(F)F)c2)C(=O)N1Cc1ccccc1Cl,GI50,OVCAR-3 ovarian,4.33 µM
same,TGI,OVCAR-3 ovarian,24.8 µM
same,GI50,UACC-62 melanoma,3.18 µM
same,TGI,UACC-62 melanoma,13.7 µM
same,GI50,SNB-19 CNS,13.1 µM
same,TGI,SNB-19 CNS,29.4 µM
same,GI50,HT29 colon,4.9 µM
same,TGI,HT29 colon,32.9 µM
same,GI50,SNB-75 CNS,0.996 µM
same,TGI,SNB-75 CNS,9.55 µM
same,GI50,SF-268 CNS,7.7 µM
same,TGI,SF-268 CNS,26.1 µM
same,GI50,RXF 393 renal,1.12 µM
same,TGI,RXF 393 renal,10.4 µM
same,GI50,BT-549 breast,1.95 µM
same,TGI,BT-549 breast,18.1 µM
same,GI50,OVCAR-4 ovarian,6.58 µM
same,TGI,OVCAR-4 ovarian,26.5 µM
same,GI50,SN12C renal,3.96 µM
same,TGI,SN12C renal,16.8 µM
same,GI50,ACHN renal,4.84 µM
same,TGI,ACHN renal,17.1 µM
same,GI50,M14 melanoma,6.21 µM
same,TGI,M14 melanoma,19.1 µM
same,GI50,HCC-2998 colon,12.6 µM
same,TGI,HCC-2998 colon,28 µM
same,GI50,KM12 colon,12.1 µM
same,TGI,KM12 colon,33.5 µM
same,GI50,NCI/ADR-RES ovarian,10.1 µM
same,TGI,NCI/ADR-RES ovarian,26.8 µM
same,GI50,CAKI-1 renal,4.84 µM
same,TGI,CAKI-1 renal,21.6 µM
same,GI50,OVCAR-8 ovarian,2.71 µM
same,TGI,OVCAR-8 ovarian,20.9 µM
same,GI50,SF-295 CNS,2.39 µM
same,TGI,SF-295 CNS,24.9 µM
same,GI50,IGROV1 ovarian,0.186 µM
same,TGI,IGROV1 ovarian,11.2 µM
same,GI50,COLO 205 colon,12 µM
same,TGI,COLO 205 colon,35.8 µM
same,GI50,U251 CNS,2.1 µM
same,TGI,U251 CNS,13.8 µM
same,GI50,786-0 renal,1.78 µM
same,TGI,786-0 renal,16.5 µM
same,GI50,MDA-MB-435,2.49 µM
same,TGI,MDA-MB-435,12.2 µM
same,GI50,A549 NSCLC,7.68 µM
same,TGI,A549 NSCLC,27.5 µM
same,GI50,CCRF-CEM leukemia,1.23 µM
same,GI50,TK-10 renal,14 µM
same,TGI,TK-10 renal,37.5 µM
same,GI50,HOP-62 NSCLC,12.6 µM
same,TGI,HOP-62 NSCLC,25.4 µM
same,GI50,DU-145 prostate,14 µM
same,TGI,DU-145 prostate,29.6 µM
same,GI50,MALME-3M melanoma,1.54 µM
same,TGI,MALME-3M melanoma,23.3 µM
same,GI50,T-47D breast,12.8 µM
same,TGI,T-47D breast,40.7 µM
same,GI50,SK-MEL-5 melanoma,2.79 µM
same,TGI,SK-MEL-5 melanoma,14.7 µM
same,GI50,SW-620 colon,2.38 µM
same,TGI,SW-620 colon,22.2 µM
same,GI50,OVCAR-5 ovarian,18.3 µM
same,TGI,OVCAR-5 ovarian,37 µM
same,GI50,MOLT-4 leukemia,2.56 µM
same,TGI,MOLT-4 leukemia,8.53 µM
same,GI50,UACC-257 melanoma,13.7 µM
same,TGI,UACC-257 melanoma,29.7 µM
same,GI50,SF-539 CNS,1.91 µM
same,TGI,SF-539 CNS,10.7 µM
same,GI50,SR leukemia,3.72 µM
same,TGI,SR leukemia,28 µM
same,GI50,NCI-H522 lung,0.49 µM
same,TGI,NCI-H522 lung,19.8 µM
same,GI50,UO-31 renal,5.01 µM
same,TGI,UO-31 renal,> 43.6 µM
same,GI50,HOP-92 NSCLC,8.34 µM
same,TGI,HOP-92 NSCLC,28.4 µM
same,GI50,HCT-15 colon,3.42 µM
same,TGI,HCT-15 colon,20.6 µM
same,GI50,SK-MEL-2 melanoma,4.08 µM
same,TGI,SK-MEL-2 melanoma,19.8 µM
same,GI50,RPMI-8226 leukemia,2.17 µM
same,TGI,RPMI-8226 leukemia,> 23.5 µM
same,GI50,EKVX NSCLC,15.7 µM
same,TGI,EKVX NSCLC,37 µM
same,GI50,NCI-H226 lung,0.0858 µM
same,TGI,NCI-H226 lung,3.01 µM
same,GI50,K-562 leukemia,4.36 µM
same,TGI,K-562 leukemia,26.5 µM
same,GI50,SK-OV-3 ovarian,20.3 µM
same,TGI,SK-OV-3 ovarian,39.8 µM
same,GI50,MDA-MB-231 breast,2.67 µM
same,TGI,MDA-MB-231 breast,17.4 µM
same,GI50,HCT-116 colon,1.25 µM
same,TGI,HCT-116 colon,5.27 µM
same,GI50,SK-MEL-28 melanoma,8.21 µM
same,TGI,SK-MEL-28 melanoma,26.9 µM
same,GI50,NCI-H23 lung,5.45 µM
same,TGI,NCI-H23 lung,23.2 µM
same,GI50,A498 renal,5.06 µM
same,TGI,A498 renal,19.7 µM
same,GI50,HS 578T breast,8.34 µM
same,TGI,HS 578T breast,43.5 µM
same,GI50,NCI-H460 lung,6.19 µM
same,TGI,NCI-H460 lung,22.4 µM
same,GI50,MCF7 breast,4.21 µM
same,TGI,MCF7 breast,> 31.8 µM
same,GI50,PC-3 prostate,4.72 µM
same,TGI,PC-3 prostate,18.2 µM
same,GI50,LOX IMVI melanoma,1.41 µM
same,TGI,LOX IMVI melanoma,3.75 µM
